Data published in patent US11286268B1, “EIF4E-inhibiting compounds and methods” (EFFECTOR THERAPEUTICS, INC., priority 2019, dated 2022).
Like-named read-outs stand apart in the source and are kept apart here.

Biological target: recombinant eIF4E (Homo sapiens (Human), UniProt P06730)
Test: Fluorescence polarization competition assay for eIF4E binding potency
How it was run: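 IC50 derived from fluorescence polarization over an 8-point, 3-fold compound series after 30 min room-temperature equilibration in the dark. Mix: eIF4E 75 nM pre-bound 5 min to 20 nM EDA-m^7GDP-ATTO-550; buffer 20 mM Tris pH 7.5, 100 mM NaCl, 1 mM DTT, 0.02% Tween-20; DMSO 1%.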

[1] = inhibition of eIF4E/EDA-m7GDP-ATTO-550 binding, calculated IC50 values, Table 4B, read-out: IC50
[2] = fluorescence polarization competition, 75 nM recombinant eIF4E, 20 nM EDA-m7GDP-ATTO-550, IC50 class, read-out: elF4E FP
[3] = inhibition of eIF4E/EDA-m7GDP-ATTO-550 binding by 50%, Table 4B calculated values, read-out: IC50

recombinant eIF4E, sequence (P06730 whole entry): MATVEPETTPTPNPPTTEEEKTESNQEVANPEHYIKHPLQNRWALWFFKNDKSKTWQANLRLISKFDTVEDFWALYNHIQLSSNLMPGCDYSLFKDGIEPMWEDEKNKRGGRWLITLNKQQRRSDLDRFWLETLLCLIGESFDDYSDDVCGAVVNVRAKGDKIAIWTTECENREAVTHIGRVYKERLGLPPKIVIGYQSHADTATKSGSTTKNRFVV

Cc1nc2cnc(NC3CCCCC3)cc2c(=O)n1CCOc1ccc(Cl)cc1-c1cccc(C(=O)O)c1 [compound 2003]
IC50 [1]: 264 nM

Cc1nc2cnc(N(C)C3CCN(CC4(F)COC4)CC3)c(C#N)c2c(=O)n1CC#Cc1ccc(Cl)cc1-c1ccnc2c(C(=O)O)csc12 [compound 1185]
IC50 [2]: < 50 nM
IC50 [3]: 17.6 nM

Cc1nc2cnc(N(C)C3CCN(CC(C)(C)F)CC3)c(C#N)c2c(=O)n1CC#Cc1ccc(Cl)cc1-c1ccnc2c(C(=O)O)csc12 [compound 1142]
IC50 [2]: < 50 nM
IC50 [3]: 13 nM

Cc1cc(-c2cc(Cl)ccc2OCCn2c(C)nc3cc(C(F)(F)F)c(-c4ccncc4C)c(C#N)c3c2=O)c2scc(C(=O)O)c2n1 [compound 901]
IC50 [2]: < 50 nM
IC50 [3]: 45.6 nM

Cc1nc2cnc(N3CCN(C)C(C(F)(F)F)C3)c(C#N)c2c(=O)n1CCOc1ccc(Cl)cc1-c1ccnc2c(C(=O)O)csc12 (stereo not shown) [compound 1334]
IC50 [1]: 51.3 nM

Cc1nc2cnc(N3CCN(C(C)(C)C)CC3)c(C#N)c2c(=O)n1CCOc1ccc(Cl)cc1-c1ccnc2c(C(=O)O)csc12 [compound 1313]
IC50 [1]: 42.6 nM

Cc1nc2cc(C(F)(F)F)cc(C#N)c2c(=O)n1CCOc1ccc(Cl)cc1-c1cccc(C(=O)O)c1 [compound 51]
IC50 [2]: < 50 nM
IC50 [3]: 21.3 nM

Cc1cc(-c2cc(Cl)ccc2OCCn2c(C)nc3ccc(N4CCN(C)CC4)cc3c2=O)c2scc(C(=O)O)c2n1 [compound 811]
IC50 [2]: 50 to 1000 nM

Cc1nc2c(F)ccc(C#N)c2c(=O)n1CCOc1ccc(Cl)cc1-c1ccnc2c(C(=O)O)csc12 [compound 1373]
IC50 [1]: 26.7 nM

Cc1nc2c(C#N)cc(C(F)F)c(C#N)c2c(=O)n1CCOc1ccc(Cl)cc1-c1ccnc2c(C(=O)O)csc12 [compound 197]
IC50 [2]: 50 to 1000 nM
IC50 [3]: 52.4 nM

N#Cc1cc2c(=O)n(C/C=C/c3ccc(Cl)cc3-c3cccc(C(=O)O)c3)cnc2cn1 [compound 41]
IC50 [2]: > 1000 nM
IC50 [3]: 3440 nM

Cc1nc2cnc(CC3CCN(CC(F)F)CC3)c(C#N)c2c(=O)n1CCOc1ccc(Cl)cc1-c1ccnc2c(C(=O)O)csc12 [compound 1484]
IC50 [1]: 22.9 nM

Cc1cc(-c2cc(Cl)ccc2C#CCn2c(C)nc3cc(C(F)(F)F)c(N4CCN(CCO)CC4)c(C#N)c3c2=O)c2scc(C(=O)O)c2n1 [compound 856]
IC50 [2]: < 50 nM
IC50 [3]: 13.7 nM

Cc1cc(-c2cc(Cl)ccc2OCCn2c(C)nc3cc(C(F)(F)F)cc(C#N)c3c2=O)c2csc(C(=O)O)c2n1 [compound 447]
IC50 [2]: 50 to 1000 nM
IC50 [3]: 84.8 nM

COC(=O)c1csc2c(-c3cc(Cl)ccc3C#CCn3c(C)nc4cnc(N5CCN(CCOC(F)(F)F)CC5)c(C#N)c4c3=O)ccnc12 [compound 1405]
IC50 [1]: 631 nM

Cc1nc2cc(CN(C)C)c(OC(F)(F)F)c(C#N)c2c(=O)n1CCOc1ccc(Cl)cc1-c1ccnc2c(C(=O)O)csc12 [compound 552]
IC50 [2]: 50 to 1000 nM
IC50 [3]: 50.9 nM

O=C(O)c1cccc(-c2cc(Cl)ccc2OCCn2ccc3ccccc3c2=O)c1 [compound 9]
IC50 [2]: > 1000 nM
IC50 [3]: > 30000 nM

Cc1cc(-c2cc(Cl)ccc2OCCn2c(C)nc3cc(C(F)(F)F)c(-c4cc(C)n(C)n4)c(C#N)c3c2=O)c2scc(C(=O)O)c2n1 [compound 1029]
IC50 [2]: < 50 nM
IC50 [3]: 7.66 nM

Cc1c(C(F)(F)F)c2cc(C(F)(F)F)cc(C#N)c2c(=O)n1CCOc1ccc(Cl)cc1-c1ccnc2c(C(=O)O)csc12 [compound 268]
IC50 [2]: < 50 nM
IC50 [3]: 34.1 nM

Cc1nc2cnc(N3CCC(N4CCC(F)(F)CC4)CC3)c(C#N)c2c(=O)n1CC#Cc1ccc(Cl)cc1-c1ccnc2c(C(=O)O)csc12 [compound 1180]
IC50 [2]: < 50 nM

Cc1cc(-c2cc(Cl)ccc2OCCn2c(C)nc3cc(C(F)(F)F)c(C4CN(C)C4)c(C#N)c3c2=O)c2scc(C(=O)O)c2n1 [compound 652]
IC50 [2]: < 50 nM
IC50 [3]: 6.68 nM

O=C(O)c1cccc(-c2cc(Cl)ccc2OCCn2cnc3cc(F)ccc3c2=O)c1 [compound 3]
IC50 [2]: > 1000 nM
IC50 [3]: 4720 nM

Cc1cc(-c2cc(Cl)ccc2OCCn2c(C)nc3cc(S(C)(=O)=O)c(N4CCN(C)CC4)c(C#N)c3c2=O)c2sc(C)c(C(=O)O)c2n1 [compound 1150]
IC50 [2]: < 50 nM
IC50 [3]: 4.6 nM

Cc1nc2cnc(N3CCN(CCF)CC3)c(C#N)c2c(=O)n1CCOc1ccc(Cl)cc1-c1ccnc2c(C(=O)O)csc12 [compound 1302]
IC50 [1]: 30.7 nM

Cc1nc2cnc(N3CCN(CCF)CC3)c(C#N)c2c(=O)n1CC#Cc1ccc(Cl)cc1-c1ccnc2c(C(=O)NS(C)(=O)=O)csc12 [compound 1488]
IC50 [1]: 12.3 nM

COC(=O)c1csc2c(-c3cc(Cl)ccc3OCCn3c(C)nc4cc(C(F)(F)F)c(CN(C)C)c(C#N)c4c3=O)ccnc12 [compound 1907]
IC50 [1]: 405 nM

N#Cc1cc2c(=O)n(CC#Cc3ccc(Cl)cc3-c3cccc(C(=O)O)c3)cnc2cn1 [compound 130]
IC50 [2]: > 1000 nM
IC50 [3]: 1420 nM
